According to PubChem BioAssay AID1745844 (Carcinogenic Potency Database (CPDB), 2022):

Tested on: rodent lifetime carcinogenesis bioassay, tumor incidence TD50
Test: carcinogenic potency in animals, long-term in vivo studies, CPDB compilation (AID 1745844)
Settings: rat, strain Fischer 344, by gavage, study length 104 weeks

## CC(C)=CCl
females, site: multiple organs, lesion: lymphocytic leukemia + mononuclear-cell leukemia, dosed 100 weeks
  TD50: 170 mg/kg/day
females, site: multiple organs, lesion: mononuclear-cell leukemia, dosed 100 weeks
  TD50: 202 mg/kg/day
females, site: nasal cavity, lesion: adenocarcinoma + adenoma, NOS + carcinoma, NOS + squamous-cell carcinoma, dosed 100 weeks
  TD50: 34.3 mg/kg/day
females, site: nasal cavity, lesion: adenocarcinoma + adenoma, NOS, dosed 100 weeks
  TD50: 143 mg/kg/day
females, site: nasal cavity, lesion: adenocarcinoma + carcinoma, NOS + squamous-cell carcinoma, dosed 100 weeks
  TD50: 35.2 mg/kg/day
females, site: nasal cavity, lesion: adenocarcinoma, dosed 100 weeks
  TD50: 159 mg/kg/day
females, site: nasal cavity, lesion: carcinoma, NOS + squamous-cell carcinoma, dosed 100 weeks
  TD50: 46.8 mg/kg/day
females, site: nasal cavity, lesion: carcinoma, NOS, dosed 100 weeks
  TD50: 52.7 mg/kg/day
females, site: oral mucosa + palate, lesion: squamous-cell papilloma, dosed 100 weeks
  TD50: 1010 mg/kg/day
females, site: oral mucosa, lesion: squamous-cell papilloma, dosed 100 weeks
  TD50: 1220 mg/kg/day
females, site: pituitary gland, anterior, lesion: adenoma, NOS + chromophobe adenoma + chromophobe carcinoma, dosed 100 weeks
  TD50: 68 mg/kg/day
females, site: pituitary gland, anterior, lesion: adenoma, NOS + chromophobe adenoma, dosed 100 weeks
  TD50: 101 mg/kg/day
females, site: pituitary gland, anterior, lesion: chromophobe adenoma + chromophobe carcinoma, dosed 100 weeks
  TD50: 71.7 mg/kg/day
females, site: pituitary gland, anterior, lesion: chromophobe adenoma, dosed 100 weeks
  TD50: 109 mg/kg/day
females, site: pituitary gland, anterior, lesion: chromophobe carcinoma, dosed 100 weeks
  TD50: 222 mg/kg/day
females, site: thyroid gland, lesion: c-cell adenoma, dosed 100 weeks
  TD50: 225 mg/kg/day
females, site: thyroid gland, lesion: follicular-cell adenoma + follicular-cell carcinoma, dosed 100 weeks
  TD50: 131 mg/kg/day
females, site: thyroid gland, lesion: follicular-cell carcinoma, dosed 100 weeks
  TD50: 136 mg/kg/day
females, site: uterus, lesion: endometrial stromal polyp + endometrial stromal sarcoma, dosed 100 weeks
  TD50: 84.9 mg/kg/day
females, site: uterus, lesion: endometrial stromal polyp, dosed 100 weeks
  TD50: 91.9 mg/kg/day
males, site: adrenal gland + adrenal medulla, lesion: pheochromocytoma, malignant + pheochromocytoma, dosed 94 weeks
  TD50: 86.7 mg/kg/day
males, site: any site (literature study), lesion: several types, types named in the paper, dosed 94 weeks
  TD50: 10.2 mg/kg/day
males, site: esophagus + forestomach + lip + nasal cavity + palate + tongue, lesion: squamous-cell carcinoma + squamous-cell papilloma + adenocarcinoma + carcinoma, NOS, dosed 94 weeks
  TD50: 17.5 mg/kg/day
males, site: esophagus, lesion: squamous-cell carcinoma + squamous-cell papilloma, dosed 94 weeks
  TD50: 81.6 mg/kg/day
males, site: esophagus, lesion: squamous-cell carcinoma, dosed 94 weeks
  TD50: 143 mg/kg/day
males, site: esophagus, lesion: squamous-cell papilloma, dosed 94 weeks
  TD50: 218 mg/kg/day
males, site: forestomach, lesion: squamous-cell carcinoma + squamous-cell papilloma, dosed 94 weeks
  TD50: 41.6 mg/kg/day
males, site: forestomach, lesion: squamous-cell carcinoma, dosed 94 weeks
  TD50: 135 mg/kg/day
males, site: forestomach, lesion: squamous-cell papilloma, dosed 94 weeks
  TD50: 67.1 mg/kg/day
males, site: lip + palate + tongue, lesion: squamous-cell carcinoma + squamous-cell papilloma, dosed 94 weeks
  TD50: 163 mg/kg/day
males, site: lip + palate + tongue, lesion: squamous-cell carcinoma, dosed 94 weeks
  TD50: 178 mg/kg/day
males, site: liver, lesion: hepatocellular adenoma + hepatocellular carcinoma + neoplastic nodule, dosed 94 weeks
  TD50: 1030 mg/kg/day
males, site: multiple organs, lesion: mononuclear-cell leukemia, dosed 94 weeks
  TD50: 128 mg/kg/day
males, site: nasal cavity, lesion: adenocarcinoma + carcinoma, NOS + squamous-cell carcinoma, dosed 94 weeks
  TD50: 29.7 mg/kg/day
males, site: nasal cavity, lesion: adenocarcinoma, NOS, dosed 94 weeks
  TD50: 70.1 mg/kg/day
males, site: nasal cavity, lesion: carcinoma, NOS + squamous-cell carcinoma, dosed 94 weeks
  TD50: 52.1 mg/kg/day
males, site: nasal cavity, lesion: carcinoma, NOS, dosed 94 weeks
  TD50: 63.4 mg/kg/day
males, site: nasal cavity, lesion: squamous-cell carcinoma, dosed 94 weeks
  TD50: 297 mg/kg/day
males, site: testis, lesion: interstitial-cell tumor, dosed 94 weeks
  TD50: 13.9 mg/kg/day
males, site: tongue, lesion: squamous-cell carcinoma + squamous-cell papilloma, dosed 94 weeks
  TD50: 415 mg/kg/day
males, site: tongue, lesion: squamous-cell carcinoma, dosed 94 weeks
  TD50: 469 mg/kg/day
